# In PubChem BioAssay (NCI):
#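 48-hour exposure; five concentrations; linearly interpolated endpoints. GI50 is the concentration that inhibits growth by half. At the TGI there is no net growth.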
# Columns and labels:
# Test in all cases: inhibition of tumour cell growth, NCI panel, 48 h
# COLO 205 colon = test system: COLO 205 colon
# EKVX NSCLC = test system: EKVX NSCLC
# HCT-15 colon = test system: HCT-15 colon
# IGROV1 ovarian = test system: IGROV1 ovarian
# OVCAR-8 ovarian = test system: OVCAR-8 ovarian
# SK-MEL-2 melanoma = test system: SK-MEL-2 melanoma
# SK-OV-3 ovarian = test system: SK-OV-3 ovarian
# SNB-75 CNS = test system: SNB-75 CNS
# U251 CNS = test system: U251 CNS
# LOX IMVI melanoma = test system: LOX IMVI melanoma
SMILES,GI50 (COLO 205 colon) [µM],TGI (COLO 205 colon) [µM],GI50 (EKVX NSCLC) [µM],TGI (EKVX NSCLC) [µM],GI50 (HCT-15 colon) [µM],TGI (HCT-15 colon) [µM],GI50 (IGROV1 ovarian) [µM],TGI (IGROV1 ovarian) [µM],GI50 (OVCAR-8 ovarian) [µM],TGI (OVCAR-8 ovarian) [µM],GI50 (SK-MEL-2 melanoma) [µM],TGI (SK-MEL-2 melanoma) [µM],GI50 (SK-OV-3 ovarian) [µM],TGI (SK-OV-3 ovarian) [µM],GI50 (SNB-75 CNS) [µM],TGI (SNB-75 CNS) [µM],GI50 (U251 CNS) [µM],TGI (U251 CNS) [µM],TGI (LOX IMVI melanoma) [µM],GI50 (LOX IMVI melanoma) [µM]
CC(=O)N=c1ccc2nc3c(cc(N)c4ccccc43)oc-2c1,1.11,2.44,1.52,4.54,0.935,2.5,0.36,1.89,1.31,3.6,1.57,3.34,1.92,4.95,1.83,3.34,1.43,2.86,,
Cc1ccc(Cl)c(NC(=O)C(=O)C(C(=O)c2ccncc2)C2OC(=O)c3ccccc32)c1 (stereo not drawn),,> 100,,> 100,,> 100,,> 100,,> 100,,,,> 100,,> 100,,> 100,> 100,
O=C(Nc1nc2ncn(CC(COc3ccccc3)OC(=O)c3ccccc3)c2c(=O)[nH]1)c1ccccc1 (stereo not drawn),,,,> 100,,> 100,,> 100,,> 100,,> 100,,> 100,,> 100,,> 100,> 100,
CC1=C(C(=O)Nc2ccc(Cl)c(Cl)c2)C(c2ccco2)C(C(=O)Nc2ccc(Cl)c(Cl)c2)=C(C)N1,,25.7,,29.5,,24.3,,32.6,,24.3,,26.3,,28.5,,31.5,,23.9,,
COc1cc(-c2cc(-c3nc4ccc(Cl)cc4[nH]3)[nH]n2)cc(OC)c1OC,3.18,10,,,2.9,13.2,3.42,16.3,2.26,5.59,,,4.47,14.3,2.71,10.4,3.38,14.1,,
COC1=CC(c2ccc[nH]2)=N/C1=C\c1ccc[nH]1,0.0897,5.7,0.61,16.4,0.0337,12.3,0.172,4.7,0.232,20.5,0.218,0.809,5.37,18.6,0.188,1.83,0.379,12.4,,
OCC12C3C4C1C1C2C3C41CO (stereo not drawn),,> 100,,> 100,,> 100,,> 100,,> 100,,,,> 100,,,,> 100,> 100,
Cc1[nH]c(=O)[nH]c(=O)c1CO,> 100,> 100,,,> 100,> 100,> 100,> 100,> 100,> 100,> 100,> 100,> 100,> 100,> 100,> 100,> 100,> 100,> 100,> 100
